# Measured values: patent publication US20230130103A1, “TARGETED PHARMACOLOGICAL THERAPEUTICS IN UVEAL MELANOMA” (Washington University, priority 2017, published 2023)
# Entries after “also recorded” stand apart in the source; their conditions may differ. Starred links: 1 amine or outer side, 2 acyl side, 3 side chain; linkers in the order of their positions; H or OH if unused. Positions of bridges follow the written chain, without caps; N, C: chain ends. Non-standard residues stand in square brackets, D forms with d. Residues, ends and D or L forms follow the SMILES beside them. *: point of attachment. Leu(3R-OH,Nα-propionyl) = CCC(=O)N[C@H](C(=O)*)[C@H](O)C(C)C; X1 = CC(C)[C@@H](O[*:3])[C@H](N[*:1])C(=O)[*:2]; X2 = CC(C)[C@H](O[*:3])[C@@H](N[*:1])C(=O)[*:2]; NMeaThr = CN[C@H](C(=O)O)[C@H](C)O; dPhLac = O=C(O)[C@H](O)Cc1ccccc1; NMeA = CN[C@@H](C)C(=O)O; NMeDha = C=C(NC)C(=O)O
# Key:
# Gαi/q [1] = test: In vitro nucleotide exchange (BODIPY-GTPγS fluorescence); assay type: biochemical; settings: FIG. 2B
# Gαi/q(R54K) = test: as above; assay type: biochemical; settings: Gαi/q(R54K) vs Gαi/q
# Gαi/q [2] = molecular target: T1, Gαi/q (Homo sapiens, UniProt P63096, K54R/C351G, form not given); assay type: cell-based; settings: read-out: IC50, attenuation of cannabinoid type 1 receptor inhibition of forskolin-induced cAMP accumulation; via Gαi/q; Neuro2A cells, PTX-treated; FIG. 2C
# T1 construct: other: via Gαi/q; the eight substituted residues copy Gαq (GNAQ) but are point changes, not a fused part of Gαq
# 92.1 cells [3] = test: YAP-driven transcriptional reporter; assay type: cell-based; settings: Homo sapiens, FIG. 6B, read-out: EC50, increase in expression of YAP-driven transcriptional reporter
# Description: (§1) Expression data from two experimental replicates are mean-centered; the color gradient corresponds to difference in log 2 ratio of expression from the mean, such that 0.5 versus −0.5 is a total difference of 2-fold in unlogged expression.
# (§2) Assays of transcriptional reporters driven by YAP or Gα subunits were performed as described (42, 43). YAP- or Ga-driven firefly luciferase activity was normalized to Renilla luciferase expressed from a constitutive promoter.
# Mel202 cells [4] = test: YAP-driven transcriptional reporter; assay type: cell-based; settings: Homo sapiens, FIG. 6B, read-out: EC50, increase in expression of YAP-driven transcriptional reporter
# Description: as §1, §2
# 92.1 UM cells [5] = test: qPCR validation of FR target genes; assay type: cell-based, Human; settings: 92.1 cells; FIG. 10
# Description: (§3) The results for six genes showing significant changes in expression in response to FR by RNA-Seq were validated by qPCR.
# (§4) 92.1 UM cells were treated with 100 nM FR or vehicle (DMSO) in RPMI growth medium and collected after 1 and 3 d of treatment. RNA was isolated using the RNeasy Mini Kit (Qiagen) following the manufacturer's protocol and including the optional DNase I treatment step. RNA quality was assessed on a Bioanalyzer 2100 (Agilent Technologies, Santa Clara, Calif., USA). mRNA was extracted from total RNA using a Dynal mRNA Direct kit, fragmented and reverse transcribed to double stranded cDNA with random primers before addition of adapters for library preparation. Library preparation and HiSeq2500 sequencing were performed by the Washington University Genome Technology Access Center (gtac.wustl.edu). FastQ files were aligned to the transcriptome and the whole-genome with STAR. Biologic replicates were simultaneously analyzed by edgeR and Sailfish analyses of gene-level/exon-level features. Unexpressed genes and exons were removed from the analyses. Unsupervised principal component analysis and volcano plots were generated in Bioconductor using edgeR. Significance Analysis of Microarrays (SAM), Version 4.0 was used to generate a ranked gene list, and a threshold of q<10% and fold-change >2.0 was then used to select the most highly significant genes that were down regulated in FR-treated versus vehicle control cells. This list was used as signature gene sets for Gene Ontology (GO) analysis and Gene Set Enrichment Analysis (GSEA) (45). […] Significant gene sets from GSEA analyses were combined such that genes associated with multiple related signatures were only counted once and each gene was assigned only to a single combined groupbased on the signature with the highest enrichment score for that gene. Significant gene expression changes were validated in all three UM cell lines by qPCR using fast SYBR Green Mastermix (Fisher Scientific) following the manufacturers' protocol. GAPDH was used as an endogenous control.
# OCM-1A UM cells = test: qPCR validation of FR target genes; assay type: cell-based, Human; settings: OCM-1A cells; FIG. 10
# Description: as §3, §4
# Mel202 cells [6] = test: qPCR validation of FR target genes; assay type: cell-based, Human; settings: FR-treated Mel202 cells; FIG. 10
# Description: More important, 42% of genes in this cluster are known targets of the polycomb repressive complex 2 (PRC2) during differentiation from embryonic stem cells (FIG. 7D and Table 5), as indicated by gene set enrichment analysis.
# 92.1 UM cells were treated with 100 nM FR or vehicle (DMSO) in RPMI growth medium and collected after 1 and 3 d of treatment. RNA was isolated using the RNeasy Mini Kit (Qiagen) following the manufacturer's protocol and including the optional DNase I treatment step. RNA quality was assessed on a Bioanalyzer 2100 (Agilent Technologies, Santa Clara, Calif., USA). mRNA was extracted from total RNA using a Dynal mRNA Direct kit, fragmented and reverse transcribed to double stranded cDNA with random primers before addition of adapters for library preparation. Library preparation and HiSeq2500 sequencing were performed by the Washington University Genome Technology Access Center (gtac.wustl.edu). FastQ files were aligned to the transcriptome and the whole-genome with STAR. Biologic replicates were simultaneously analyzed by edgeR and Sailfish analyses of gene-level/exon-level features. […] Significant gene sets from GSEA analyses were combined such that genes associated with multiple related signatures were only counted once and each gene was assigned only to a single combined groupbased on the signature with the highest enrichment score for that gene. […]
# [7] = Retina structure (preliminary data)
# Description: In this example we will determine whether FR has potential to provide vision sparing therapy for primary (ocular) UM tumors. […] Based on our preliminary studies of UM cells in culture, intravitreal injection might be therapeutically beneficial by inhibiting tumor growth, promoting apoptosis, and/or pushing tumor re-differentiation toward melanocytic phenotypes less likely to metastasize. […] Our second priority is to determine whether FR administered systemically could provide therapeutic benefit for metastatic UM tumors.
# 92.1 UM cells [8] = test: UM cell viability, water-soluble tetrazolium salt assay; settings: Homo sapiens, read-out: EC50, inhibition of proliferation (viability)
# Description: (§5) Cells were cultured at 37.0 in 5% CO2. […] Cell lines were grown in RPMI 1640 medium (Life Technologies, Carlsbad, Calif.) supplemented with 10% FBS and antibiotics. Cell viability was measured using a water-soluble tetrazolium salt, WTS-8 (Bimake, Houston, Tex.), following the manufacturer's protocol. Flow cytometry for analysis of cell proliferation and apoptosis was performed at the Siteman Cancer Center Flow Cytometry Core on a FACScan analyzer (BD Biosciences, San Diego Calif., USA) using a standard propidium iodide staining protocol as described previously (44).
# OCM-1A cells [9] = test: as above; settings: even at high concentration (10 μM)
# Description: as §5
# 92.1 cells [10] = test: Flow cytometry of DNA content (proliferation and apoptosis); settings: 3 d, FIG. 4C-D
# Description: as §5
# OCM-1A cells [11] = test: as above; settings: 3 d, FIG. 4C-D
# Description: Cells were cultured at 37.0 in 5% CO2. […] Cell lines were grown in RPMI 1640 medium (Life Technologies, Carlsbad, Calif.) supplemented with 10% FBS and antibiotics. […] Flow cytometry for analysis of cell proliferation and apoptosis was performed at the Siteman Cancer Center Flow Cytometry Core on a FACScan analyzer (BD Biosciences, San Diego Calif., USA) using a standard propidium iodide staining protocol as described previously (44).
# T1 sequence (P63096 whole entry V50I/K54R/Y69F/V72L/K180P/V185I/T187Y/H188P/C351G, form open, the tested form may be a part): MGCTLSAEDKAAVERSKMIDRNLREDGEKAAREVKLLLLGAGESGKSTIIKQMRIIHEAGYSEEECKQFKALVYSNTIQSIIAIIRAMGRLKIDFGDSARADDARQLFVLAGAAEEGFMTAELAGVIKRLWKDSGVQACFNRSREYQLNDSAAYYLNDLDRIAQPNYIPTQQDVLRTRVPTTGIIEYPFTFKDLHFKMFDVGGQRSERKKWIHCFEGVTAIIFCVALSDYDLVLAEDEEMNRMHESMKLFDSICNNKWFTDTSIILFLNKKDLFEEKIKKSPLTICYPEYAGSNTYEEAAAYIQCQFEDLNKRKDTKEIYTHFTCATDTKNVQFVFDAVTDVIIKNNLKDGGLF
smiles,measurement,setting,value
"C=C1C(=O)N[C@@H](C)C(=O)N(C)[C@@H](C)C(=O)N[C@H]([C@@H](OC(=O)[C@@H](NC(=O)CC)[C@H](O)C(C)C)C(C)C)C(=O)N(C)[C@@H]([C@H](C)OC)C(=O)O[C@H](C(C)C)[C@H](NC(C)=O)C(=O)O[C@H](Cc2ccccc2)C(=O)N1C [FR, [(1S)-1-[(3S,6R,9S,12S,18R,21S,22R)-21-acetamido-18-benzyl-3-[(1S)-1-methoxyethyl]-4,9,10,12,16-pentamethyl-15-methylidene-2,5,8,11,14,17,20-heptaoxo-22-propan-2-yl-1,19-dioxa-4,7,10,13,16-pentazacyclodocos-6-yl]-2-methylpropyl] (2S,3R)-3-hydroxy-4-methyl-2-(propanoylamino)pentanoate] (Ac-[X1][dPhLac][NMeDha]A[NMeA][X2](Leu(3R-OH,Nα-propionyl))[NMeaThr](Me); ester 1-C)",in vitro nucleotide exchange,Gαi/q [1],inhibited
same,"fold less potent than toward Gαi/q, nucleotide exchange",Gαi/q(R54K),~10 fold
same,IC50,Gαi/q [2],25 nM
same,EC50,92.1 cells [3],3 nM
same,EC50,Mel202 cells [4],0.8 nM
same,expression of PMP22 and DCT (qPCR),92.1 UM cells [5],significantly upregulated
same,"expression of PRC2 targets ADRA2A, HAND2, SCARF2 and WT1 (qPCR)",92.1 UM cells [5],significant down-regulation
same,expression of PMP22 and DCT (qPCR),OCM-1A UM cells,no effect
same,"expression of PRC2 targets ADRA2A, HAND2, SCARF2 and WT1 (qPCR)",OCM-1A UM cells,unaffected; also recorded: no effect
same,RNA-Seq downregulation results checked by quantitative RT-PCR,Mel202 cells [6],confirmed
same,retina structure,[7],preserves retina structure
same,EC50,92.1 UM cells [8],2 nM
same,effect on proliferation,OCM-1A cells [9],no effect
same,apoptosis (sub-G1/G0 cells),92.1 cells [10],increased levels of sub-G1/G0 cells
same,cell cycle inhibition (decreased levels of S- and G2/M-phase cells),92.1 cells [10],induced cell cycle inhibition
same,cell cycle inhibition and apoptosis,OCM-1A cells [11],no effect
